The structures appear in SMILES notation.

The target in assay [1] is T1, IDH1^R132C (Homo sapiens, UniProt O75874, R132C).
T1 construct: purchased not specified
Put plainly: NADPH depletion assay, IDH1 R132C. The assay is classed as biochemical. On the procedure:
(§1) IDH mutated enzyme activity converting alpha-ketoglutarate to 2-hydroxyglutaric acid is measured using a NADPH depletion assay. In the assay the remaining cofactor is measured at the end of the reaction with the addition of a catalytic excess of diaphorase and resazurin, to generate a fluorescent signal in proportion to the amount of NADPH remaining. IDH1 WT enzyme as well as mutated isoforms IDH1^R132H, IDH1^R132C, and IDH^2R172K enzymes are commercially available proteins (see e.g. Sino Biological, Abcam, Active Motif or Creative BioMart).
(§2) IDH1^R132H homodimer enzyme are diluted to 8 nM, in 10 μL of Assay Buffer (150 mM NaCl, 50 mM Tris-HCl pH 7.6, 10 mM MgCl2, 0.001% Triton X-100, 4 mM β-mercaptoethanol); 0.2 uL of test compound, previously serially diluted 1 to 3, >10 experimental points from 1 mM in DMSO, is added and the mixture is incubated for 15 minutes at room temperature. The reaction is started with the addition of 10 μL of Substrate Mix (12 uM NADPH, 3.4 mM alpha-ketoglutarate in Assay Buffer) and the mixture is incubated for 60 minutes at room temperature. The reaction is terminated with the addition of 5 μl of Detection Buffer (100 μg/mL diaphorase, 30 μM resazurin, in IX Assay Buffer), and is incubated for 15 minute before reading on a ViewLux as platereader at Ex544/Em590.
Compounds are assayed for their activity against IDH1^R132C following the same assay as above with the following modifications: IDH1^R132C and alpha-ketoglutarate final concentrations in the Assay Buffer is 2 nM and 0.14 mM, respectively.

Assay [2] concerns the target T2, IDH1^R132H homodimer enzyme (Homo sapiens, UniProt O75874, R132H).
T2 construct: purchased not specified
Put plainly: NADPH depletion assay, IDH1 R132H. The class given is biochemical. On the procedure: as §1, §2

T1 sequence (O75874 whole entry R132C): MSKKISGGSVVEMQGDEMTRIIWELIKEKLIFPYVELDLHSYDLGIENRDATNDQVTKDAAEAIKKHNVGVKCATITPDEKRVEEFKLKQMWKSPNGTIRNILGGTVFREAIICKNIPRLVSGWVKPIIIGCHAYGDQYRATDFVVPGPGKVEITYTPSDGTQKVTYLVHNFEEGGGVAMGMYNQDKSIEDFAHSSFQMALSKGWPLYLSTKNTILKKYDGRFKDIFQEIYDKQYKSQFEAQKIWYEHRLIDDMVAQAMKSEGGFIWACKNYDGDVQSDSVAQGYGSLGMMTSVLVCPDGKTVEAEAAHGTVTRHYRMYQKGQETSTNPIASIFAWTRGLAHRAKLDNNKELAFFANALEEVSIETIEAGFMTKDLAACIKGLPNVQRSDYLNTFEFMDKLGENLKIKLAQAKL
T2 sequence (O75874 whole entry R132H): as the sequence (O75874 whole entry R132C) above, with C132H counted along it

Take `C[C@H](Nc1ncc2ccc(=O)n(CC(C)(C)C)c2n1)c1ccccc1` [cpd 40, 8-(2,2-dimethylpropyl)-2-{[(1S)-1-phenylethyl]amino}pyrido[2,3-d]pyrimidin-7(8H)-one]: the IC50 in assay [1] amounted to 71 nM; in assay [2], 160 nM.
`COC(=O)c1ccc([C@H](C)Nc2ncc3ccc(=O)n(Cc4ccc(F)cc4C(F)(F)F)c3n2)cc1` [cpd 8, methyl-4-[(1S)-1-({8-[4-fluoro-2-(trifluoromethyl)benzyl]-7-oxo-pyrido[2,3-d]pyrimidin-2-yl}amino)ethyl]benzoate]: the figures for the half-maximal inhibitory concentration (IC50) in assay [1] and in assay [2] were 1380 nM and 2440 nM, respectively.
With `C[C@H](Nc1ncc2ccc(=O)n(CC(F)(CF)CF)c2n1)c1ccc(CN2CCC(F)(F)CC2)cc1` [cpd 107, 8-[2,3-difluoro-2-(fluoromethyl)propyl]-2-{[(1S)-1-{4-[(4,4-difluoropiperidin-1-yl)methyl]phenyl)ethyl]amino) pyrido[2,3-d]pyrimidin-7(8H)-one], the IC50 turned out to be 459 nM in assay [1] and 722 nM in assay [2].
As for `CC(C)[C@H](C)n1c(=O)ccc2cnc(N[C@@H](C)c3ccc(-c4ccnc(C(F)(F)F)c4)cn3)nc21` [cpd 196, 8-[(2S)-3-methylbutan-2-yl]-2-({(1S)-1-[2′-(trifluoromethyl)-3,4′-bipyridin-6-yl]ethyl}amino)pyrido[2,3-d]pyrimidin-7(8H)-one], the values for the concentration for half-maximal inhibition (IC50) in assay [1] and in assay [2] were 141 nM and 955 nM, respectively.
Take `COc1ccc([C@H](C)Nc2ncc3ccc(=O)n(CC(C)(C)C)c3n2)cc1` [cpd 33, 8-(2,2-dimethylpropyl)-2-{[(1S)-1-(4-methoxyphenyl)ethyl]amino}pyrido[2,3-d]pyrimidin-7(8H)-one]: the IC50 in assay [1] worked out at 190 nM; in assay [2], 461 nM.
As to `C[C@H](Nc1ncc2ccc(=O)n(CC(C)(C)C)c2n1)c1ccc(C(=O)NC2CCCCC2)cc1` [cpd 81, N-cyclohexyl-4-[(1S)-1-{[8-(2,2-dimethylpropyl)-7-oxo-pyrido[2,3-d]pyrimidin-2-yl]amino}ethyl] benzamide], the IC50 came to 172 nM in assay [1] and 288 nM in assay [2].
On to `C[C@H](Nc1ncc2ccc(=O)n(CCF)c2n1)c1ccc(Cl)cc1` [cpd 17, 2-{[(1S)-1-(4-chlorophenyl)ethyl]amino}-8-(2-fluoroethyl)pyrido[2,3-d]pyrimidin-7(8H)-one], for which the IC50 in assay [1] came out at 1890 nM; in assay [2], 4910 nM.
In the case of `CC(C)C(=O)N1CCC(Oc2ccc([C@H](C)Nc3ncc4ccc(=O)n([C@@H](C)C(C)C)c4n3)cc2)CC1` [cpd 160, 8-((S)-1,2-Dimethyl-propyl)-2-{(S)-1-[4-(1-isobutyryl-piperidin-4-yloxy)-phenyl]-ethylamino}-8H-pyrido[2,3-d]pyrimidin-7-one], the 50% inhibitory concentration (IC50) in assay [1] was 31 nM; in assay [2], 68 nM.
The like results for `Cc1nc(N[C@@H](C)c2ccc(Cl)cc2)nc2c1ccc(=O)n2CC(C)C` [cpd 32, 2-{[(1S)-1-(4-chlorophenyl)ethyl]amino}-4-methyl-8-(2-methylpropyl)pyrido[2,3-d]pyrimidin-7(8H)-one] were, in that order, 1150 nM and 3770 nM.
For the compound `C[C@@H]1CN(Cc2ccc([C@H](C)Nc3ncc4ccc(=O)n([C@@H](C)C(F)(F)F)c4n3)cc2)C[C@H](C)O1` [cpd 164, 2-{[(1S)-1-(4-{[(2R,6S)-2,6-dimethylmorpholin-4-yl]methyl}phenyl)ethyl]amino}-8-[(2S)-1,1,1-trifluoropropan-2-yl]pyrido[2,3-d]pyrimidin-7(8H)-one], the figures for the half-inhibitory concentration (IC50) in assay [1] and in assay [2] were 406 nM and 759 nM, respectively.
Regarding `CCN1CCN(c2ccc([C@H](C)Nc3ncc4ccc(=O)n([C@@H](C)C(C)C)c4n3)cc2)CC1` [cpd 177, 2-({(1S)-1-[4-(4-ethylpiperazin-1-yl)phenyl]ethyl}amino)-8-[(2S)-3-methylbutan-2-yl]pyrido[2,3-d]pyrimidin-7(8H)-one], the concentration for half-maximal inhibition (IC50) was determined as 401 nM in assay [1] and 978 nM in assay [2].
For the compound `C[C@H](Nc1ncc2ccc(=O)n(Cc3ccc(F)cc3C(F)(F)F)c2n1)c1ccc(CN2CCC(F)(F)CC2)cc1` [cpd 115, 2-{[(1S)-1-{4-[(4,4-difluoropiperidin-1-yl)methyl]phenyl}ethyl]amino}-8-[4-fluoro-2-(trifluoromethyl)benzyl]pyrido[2,3-d]pyrimidin-7(8H)-one], the 50% inhibitory concentration (IC50) in assay [1] turned out to be 825 nM; in assay [2] it was 672 nM.
Take `CC(C)[C@H](C)n1c(=O)ccc2cnc(N[C@@H](C)c3ccc(N4CCN(C(=O)OCc5ccccc5)CC4)cc3)nc21` [cpd 174, Benzyl-4-{4-[(1S)-1-({8-[(2S)-3-methylbutan-2-yl]-7-oxo-7,8-dihydropyrido[2,3-d]pyrimidin-2-yl}amino)ethyl]phenyl}piperazine-1-carboxylate]: the IC50 stood at 32 nM in assay [1] and 42 nM in assay [2].
`CC(C)[C@H](C)n1c(=O)ccc2cnc(N[C@@H](C)c3ccc(N4CCNCC4)cc3)nc21` [cpd 176, 8-[(2S)-3-methylbutan-2-yl]-2-({(1S)-1-[4-(piperazin-1-yl)phenyl]ethyl}amino)pyrido[2,3-d]pyrimidin-7(8H)-one]: the half-inhibitory concentration (IC50) in assay [1] worked out at 1910 nM; in assay [2] it was 3510 nM.
Consider `C[C@H](Nc1ncc2ccc(=O)n(CC3(C)COC3)c2n1)c1ccc2ccccc2c1` [cpd 45, 8-[(3-methyloxetan-3-yl)methyl]-2-{[(1S)-1-(naphthalen-2-yl)ethyl]amino}pyrido[2,3-d]pyrimidin-7(8H)-one], for which the results for the IC50 in assay [1] and in assay [2] were 206 nM and 554 nM, respectively.
The like results for `COC(=O)c1ccc([C@H](C)Nc2ncc3ccc(=O)n(CC4(C)COC4)c3n2)cc1` [cpd 10, methyl 4-[(1S)-1-({8-[(3-methyloxetan-3-yl)methyl]-7-oxo-pyrido[2,3-d]pyrimidin-2-yl}amino)ethyl]benzoate] were, in that order, 1920 nM and 3850 nM.
`C[C@H](Nc1ncc2ccc(=O)n(Cc3c(F)cccc3F)c2n1)c1ccc(C(=O)NC2CCOCC2)cc1` [cpd 78, 4-[(1S)-1-{[8-(2,6-difluorobenzyl)-7-oxo-pyrido[2,3-d]pyrimidin-2-yl]amino}ethyl]-N-(tetrahydro-2H-pyran-4-yl) benzamide]: the IC50 in assay [1] is 1380 nM; in assay [2], 896 nM.
Take `C[C@H](Nc1ncc2ccc(=O)n(CC(C)(C)C)c2n1)c1ccc(C(=O)NC2CCC(F)(F)CC2)c(Cl)c1` [cpd 88, 2-chloro-N-(4,4-difluorocyclohexyl)-4-[(1S)-1-{[8-(2,2-dimethylpropyl)-7-oxo-7,8-dihydropyrido[2,3-d]pyrimidin-2-yl]amino}ethyl]benzamide]: the half-maximal inhibitory concentration (IC50) came to 97 nM in assay [1] and 138 nM in assay [2].
`C[C@H](Nc1ncc2ccc(=O)n(CC(C)(C)C)c2n1)c1ccc(C(=O)NC2CC(F)(F)C2)cc1` [cpd 85, N-(3,3-difluorocyclobutyl)-4-[(1S)-1-{[8-(2,2-dimethylpropyl)-7-oxo-pyrido[2,3-d]pyrimidin-2-yl]amino}ethyl]benzamide]: the concentration for half-maximal inhibition (IC50) in assay [1] stood at 1460 nM; in assay [2], 1770 nM.
For the compound `CC[C@H](Nc1ncc2ccc(=O)n(CC(C)(C)C)c2n1)c1ccccc1` [cpd 70, 8-(2,2-dimethylpropyl)-2-{[(1S)-1-phenylpropyl]amino}pyrido[2,3-d]pyrimidin-7(8H)-one], the IC50 in assay [1] came to 177 nM; in assay [2], 478 nM.
With `CC(C)[C@H](C)n1c(=O)ccc2cnc(N[C@@H](C)c3ccc(C4=CCN(C(=O)C5CC5)CC4)cn3)nc21` [cpd 195, 2-({(1S)-1-[1′-(cyclopropylcarbonyl)-1′,2′,3′,6′-tetrahydro-3,4′-bipyridin-6-yl]ethyl}amino)-8-[(2S)-3-methylbutan-2-yl]pyrido[2,3-d]pyrimidin-7(8H)-one], the values for the IC50 in assay [1] and in assay [2] were 184 nM and 593 nM, respectively.
With `C[C@H](Nc1ncc2cc(F)c(=O)n(CC(C)(C)C)c2n1)c1ccccc1` [cpd 47, 8-(2,2-Dimethyl-propyl)-6-fluoro-2-((S)-1-phenyl-ethylamino)-8H-pyrido[2,3-d]pyrimidin-7-one], the IC50 stood at 597 nM in assay [1] and 1810 nM in assay [2].
For the compound `CC(Nc1ncc2ccc(=O)n(CC(C)(C)C)c2n1)c1ccc(C(=O)NC2CCC(F)(F)CC2)c(F)c1` (centres unmarked) [cpd 84, N-(4,4-difluorocyclohexyl)-4-(1-{[8-(2,2-dimethylpropyl)-7-oxo-pyrido[2,3-d]pyrimidin-2-yl]amino}ethyl)-2-fluorobenzamide], the half-inhibitory concentration (IC50) in assay [1] turned out to be 150 nM; in assay [2] it was 190 nM.
With `C[C@H](Nc1ncc2ccc(=O)n(Cc3ccc(O)cc3)c2n1)c1ccc(Cl)cc1` [cpd 72, 2-{[(1S)-1-(4-chlorophenyl)ethyl]amino}-8-(4-hydroxybenzyl)pyrido[2,3-d]pyrimidin-7(8H)-one], the figures for the IC50 in assay [1] and in assay [2] were 1240 nM and 2590 nM, respectively.
As for `C=CC(=O)N1CCN(Cc2ccc([C@H](C)Nc3ncc4ccc(=O)n(CCN=[N+]=[N-])c4n3)cc2)CC1` [cpd 182, 2-{[(1S)-1-{4-[(4-acryloylpiperazin-1-yl)methyl]phenyl}ethyl]amino}-8-(2-azidoethyl)pyrido[2,3-d]pyrimidin-7(8H)-one], the IC50 in assay [1] was 61 nM; in assay [2], 103 nM.

Broadly, the IC50 is the concentration at which inhibition is half-maximal.

The values are drawn from patent US12018023B2 (NERVIANO MEDICAL SCIENCES S.R.L., priority 2018, dated 2024).
